Like-named read-outs stand apart in the source and are kept apart here.
Key:
[1] = tested on: Key Broadleaf Weed and Crop Species; test: Post-Emergent Test II (Table 5); assay type: in vivo; conditions: post-emergence, 336 h; for pest or weed control at 70 g/ha: application rate 70 (kg ai/ha; footnote: g ai/ha); for pest or weed control at 140 g/ha: application rate 140 (kg ai/ha; footnote: g ai/ha)
How it was run: (§1)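 Post-emergence greenhouse spray, 1st-2nd true leaf stage; track sprayer, 187 L/ha; acetone/DMSO stock diluted in aqueous acetone/IPA/DMSO with Atplus 411F and Triton X-155; rates 1× to 1/16×; subirrigated; visual injury 0 (none) to 100% (complete kill) at 14 days.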

[2] = tested on: Key Grass and Sedge Weeds as well as Grass Crops; test: Post-Emergent Test II (Table 6); assay type: in vivo; conditions: post-emergence, 336 h, 14 days after application; for pest or weed control at 70 g/ha: 70 g ai/ha; for pest or weed control at 140 g/ha: 140 g ai/ha
How it was run: as §1

[3] = Abutilon theophrasti, ABUTH: velvetleaf (Abutilon theophrasti), read-out: Visual Growth Reduction (%) 14 Days After Application ABUTH
[4] = Amaranthus retroflexus, AMARE: redroot pigweed (Amaranthus retroflexus), read-out: Visual Growth Reduction (%) 14 Days After Application AMARE
[5] = Brassica napus, BRSSS: oilseed rape, canola (Brassica napus), read-out: Visual Growth Reduction (%) 14 Days After Application BRSSS
[6] = Chenopodium album, CHEAL: lambsquarters (Chenopodium album), read-out: Visual Growth Reduction (%) 14 Days After Application CHEAL
[7] = Euphorbia heterophylla, EPHHL: wild poinsettia (Euphorbia heterophylla), read-out: Visual Growth Reduction (%) 14 Days After Application EPHHL
[8] = Helianthus annuus, HELAN: sunflower (Helianthus annuus), read-out: Visual Growth Reduction (%) 14 Days After Application HELAN
[9] = Viola tricolor, VIOTR: wild pansy (Viola tricolor), read-out: Visual Growth Reduction (%) 14 Days After Application VIOTR
[10] = CYPSS, read-out: Visual Growth Reduction (%) 14 Days After Application CYPSS
[11] = DIGSA: crabgrass (Digitaria sanguinalis), read-out: Visual Growth Reduction (%) 14 Days After Application DIGSA
[12] = ECHSS, read-out: Visual Growth Reduction (%) 14 Days After Application ECHSS
[13] = ORYSS (crop), read-out: Visual Growth Reduction (%) 14 Days After Application ORYSS
[14] = SETFA: giant foxtail (Setaria faberi), read-out: Visual Growth Reduction (%) 14 Days After Application SETFA
[15] = SORVU: grain sorghum (Sorghum vulgare), read-out: Visual Growth Reduction (%) 14 Days After Application SORVU
[16] = TRZSS (crop), read-out: Visual Growth Reduction (%) 14 Days After Application TRZSS
[17] = ZEAMX: maize, corn (Zea mays), read-out: Visual Growth Reduction (%) 14 Days After Application ZEAMX

Row | Structure (SMILES) | pest or weed control at 70 g/ha [1, 3] | pest or weed control at 140 g/ha [1, 3] | pest or weed control at 70 g/ha [1, 4] | pest or weed control at 140 g/ha [1, 4] | pest or weed control at 70 g/ha [1, 5] | pest or weed control at 140 g/ha [1, 5] | pest or weed control at 70 g/ha [1, 6] | pest or weed control at 140 g/ha [1, 6] | pest or weed control at 70 g/ha [1, 7] | pest or weed control at 140 g/ha [1, 7] | pest or weed control at 70 g/ha [1, 8] | pest or weed control at 140 g/ha [1, 8] | pest or weed control at 70 g/ha [1, 9] | pest or weed control at 140 g/ha [1, 9] | pest or weed control at 70 g/ha [2, 10] | pest or weed control at 140 g/ha [2, 10] | pest or weed control at 70 g/ha [2, 11] | pest or weed control at 140 g/ha [2, 11] | pest or weed control at 70 g/ha [2, 12] | pest or weed control at 140 g/ha [2, 12] | further results
1 | Nc1c(F)c(-c2ccc(Br)nc2)nc(C(=O)O)c1Cl [Compound 8, 4-amino-6′-bromo-5-chloro-3-fluoro-[2,3′-bipyridine]-6-carboxylic acid] | 85 to 94% | 95 to 100% | 95 to 100% | 95 to 100% | 95 to 100% | 95 to 100% | 95 to 100% | 95 to 100% | 75 to 84% | 95 to 100% | 95 to 100% | 95 to 100% | 95 to 100% | 95 to 100% | 95 to 100% | 95 to 100% | 85 to 94% | 95 to 100% | 85 to 94% | 95 to 100% | pest or weed control at 70 g/ha [2, 13]: 60 to 74%; pest or weed control at 140 g/ha [2, 13]: 75 to 84%; pest or weed control at 70 g/ha [2, 14]: 85 to 94%; pest or weed control at 140 g/ha [2, 14]: 85 to 94%; pest or weed control at 70 g/ha [2, 15]: 85 to 94%; pest or weed control at 140 g/ha [2, 15]: 95 to 100%; pest or weed control at 70 g/ha [2, 16]: 85 to 94%; pest or weed control at 140 g/ha [2, 16]: 95 to 100%; pest or weed control at 70 g/ha [2, 17]: 85 to 94%; pest or weed control at 140 g/ha [2, 17]: 95 to 100%
2 | Nc1cc(-c2ccc(Cl)c(F)c2CF)nc(C(=O)O)c1Cl [Compound 80, 4-Amino-3-chloro-6-(4-chloro-3-fluoro-2-(fluoromethyl)phenyl)picolinic acid] | 75 to 84% | 75 to 84% | 95 to 100% | 95 to 100% | 95 to 100% | 95 to 100% | 95 to 100% | 95 to 100% | 0 to 29% | 0 to 29% | 85 to 94% | 85 to 94% | 0 to 29% | 0 to 29% | 0 to 29% | 0 to 29% | 0 to 29% | 0 to 29% | 0 to 29% | 0 to 29% | pest or weed control at 70 g/ha [2, 13]: 0 to 29%; pest or weed control at 140 g/ha [2, 13]: 0 to 29%; pest or weed control at 70 g/ha [2, 14]: 0 to 29%; pest or weed control at 140 g/ha [2, 14]: 0 to 29%; pest or weed control at 70 g/ha [2, 15]: 0 to 29%; pest or weed control at 140 g/ha [2, 15]: 0 to 29%; pest or weed control at 70 g/ha [2, 16]: 0 to 29%; pest or weed control at 140 g/ha [2, 16]: 0 to 29%; pest or weed control at 70 g/ha [2, 17]: 0 to 29%; pest or weed control at 140 g/ha [2, 17]: 0 to 29%
